We go through 17 molecules from PubChem BioAssay (NCI).

Values joined by “and” are separate entries in the source; they are usually repeats but may differ in a detail not shown here. Identical values can stand only once.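 Briefly, cells in 96-well plates were exposed to five compound concentrations for 48 h, and endpoints were estimated by linear interpolation. At the GI50, growth is halved. TGI is the concentration that stops growth completely.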

Some test systems named below: A549 NSCLC; NCI-H226 lung; SF-295 CNS; SK-MEL-5 melanoma; UACC-62 melanoma; CCRF-CEM leukemia; LOX IMVI melanoma; MDA-MB-231 breast; HS 578T breast; NCI/ADR-RES ovarian.
What all share (experiment): DTP human tumour cell line panel, 48 h

By TGI is commonly meant the concentration giving total growth inhibition. A low value points to greater sensitivity of the cells. Turning to `C=CC1(C(=O)O)CCC(C(C)(C)C)CC1` (configuration not stated), the TGI in the assay with A549 NSCLC, in the assay on NCI-H226 lung, with SF-295 CNS, with SK-MEL-5 melanoma and with UACC-62 melanoma was above 100 µM in each case.

For `O=C1c2ccccc2-c2cccc3ccc(Cc4ccc5ccccc5c4)c1c23`, the TGI in the assay on A549 NSCLC, in the assay on CCRF-CEM leukemia, in the assay on SF-295 CNS, with SK-MEL-5 melanoma and in the assay with UACC-62 melanoma was above 100 µM in each case.

In the case of `CC[C@@H]1OC2(C)CC(S(=O)(=O)c3ccccc3O)CC1O2` (some centres not stated), the TGI with A549 NSCLC, in the assay on NCI-H226 lung, in the assay with CCRF-CEM leukemia, with SF-295 CNS, in the assay on SK-MEL-5 melanoma and in the assay on UACC-62 melanoma was above 100 µM throughout.

The term GI50 denotes the concentration giving 50% growth inhibition. As to `CCOC(=O)C(N)C[S][Sn]([CH3])([CH3])[Cl]` (configuration not stated), the GI50 with A549 NSCLC was above 100 µM; with NCI-H226 lung, above 100 µM; in the assay with CCRF-CEM leukemia it was above 55.2 µM; in the assay with SF-295 CNS it was above 100 µM; in the assay with SK-MEL-5 melanoma it was above 100 µM; in the assay on UACC-62 melanoma it was 65.9 µM. The GI50 with LOX IMVI melanoma is 37 µM. Moreover, the TGI with A549 NSCLC, in the assay with NCI-H226 lung, in the assay with CCRF-CEM leukemia, in the assay on SF-295 CNS, in the assay on SK-MEL-5 melanoma and in the assay on UACC-62 melanoma was above 100 µM each time. For the same molecule, the TGI in the assay on LOX IMVI melanoma was above 100 µM.

Consider `CC(=O)c1cccc(N2COC(C)(C)c3nc4ccccc4n3C2)c1`, for which the TGI with A549 NSCLC, in the assay with NCI-H226 lung, in the assay on CCRF-CEM leukemia, in the assay on SF-295 CNS, in the assay with UACC-62 melanoma and with LOX IMVI melanoma was above 100 µM in each case.

As for `CC1C[C@@]2(c3ccccc3)C(=O)CCC[C@H]2N1` (some centres not stated), the TGI in the assay with A549 NSCLC, in the assay on NCI-H226 lung, with CCRF-CEM leukemia, in the assay with SF-295 CNS, in the assay with SK-MEL-5 melanoma and in the assay on UACC-62 melanoma was above 100 µM each time.

Turning to `Cc1c[nH]c2c(O)cc3c(c12)[C@H](CCl)CN3C(=O)c1cc2cc(NC(=O)Nc3ccc4[nH]c(C(=O)N5C[C@@H](CCl)c6c5cc(O)c5[nH]cc(C)c65)cc4c3)ccc2[nH]1`, the GI50 with A549 NSCLC was 1.31 nM and 0.000888 µg/mL; in the assay on MDA-MB-231 breast it was 0.0176 µM; in the assay with HS 578T breast, 0.0252 µM; in the assay on LOX IMVI melanoma, 0.00117 µM. For the same molecule, the TGI in the assay on A549 NSCLC was 75.5 µM and 0.00228 µg/mL; in the assay with NCI-H226 lung, 15.9 µM; in the assay on MDA-MB-231 breast, 54.6 µM; in the assay with SK-MEL-5 melanoma it was 26.6 nM and 25.5 µM and 0.00138 µg/mL.

In the case of `COc1ccc(-c2onc(-c3ccc([N+](=O)[O-])cc3)c2C2=NCCN2)cc1`, the TGI in the assay with A549 NSCLC, with NCI-H226 lung, in the assay with CCRF-CEM leukemia, with SF-295 CNS, in the assay with SK-MEL-5 melanoma and with UACC-62 melanoma was above 100 µM in each case. Also, the TGI in the assay with LOX IMVI melanoma is above 100 µM.

`CC/C(C)=C1\CCC(CN2CCOCC2)C1=O` (configuration not stated): the TGI in the assay on A549 NSCLC was 41.6 µM; in the assay with NCI-H226 lung it was above 100 µM; in the assay on CCRF-CEM leukemia, 32 µM; in the assay on SF-295 CNS, above 100 µM; in the assay with SK-MEL-5 melanoma, 78.4 µM; in the assay with UACC-62 melanoma, 32.7 µM. For the same molecule, the TGI in the assay with LOX IMVI melanoma is 30.5 µM.

Take `COc1ccccc1N1C(=O)/C(=C/c2ccc(N(CCC#N)CCC#N)cc2C)N=C1c1cc([N+](=O)[O-])ccc1Cl`: the TGI in the assay on A549 NSCLC, in the assay with NCI-H226 lung, with CCRF-CEM leukemia, in the assay on SF-295 CNS and with SK-MEL-5 melanoma was above 100 µM each time.

As to `O=[N+]([O-])c1cccc(C2N3CCCCC3[C@@H]3c4[nH]c5ccccc5c4CCN23)c1` (some centres not stated), the TGI with A549 NSCLC was found to be 45.5 µM; with CCRF-CEM leukemia it was 41 µM; in the assay on SF-295 CNS, 31.4 µM; in the assay on SK-MEL-5 melanoma, 27.2 µM; with UACC-62 melanoma, 19.9 µM.

Consider `COc1cc(Cl)c2c3c(c(C(C)=O)oc13)CCC2`, for which the concentration for total growth inhibition (TGI) with A549 NSCLC, in the assay with CCRF-CEM leukemia, in the assay with SF-295 CNS, in the assay on SK-MEL-5 melanoma, with UACC-62 melanoma and in the assay on LOX IMVI melanoma was above 100 µM each time.

With `CC(=O)OCC1OC(N2C(=O)C(=O)c3cc(C)ccc32)C(OC(C)=O)C(OC(C)=O)C1OC(C)=O` (configuration not stated), the TGI with A549 NSCLC, in the assay on NCI-H226 lung, in the assay with CCRF-CEM leukemia, with SF-295 CNS, with SK-MEL-5 melanoma and in the assay on UACC-62 melanoma was above 100 µM throughout. The molecule further gave a TGI in the assay on LOX IMVI melanoma of 34.3 µM.

For the molecule `CC1=C(C(=O)Nc2ccccc2C)C(c2ccc(Cl)c(Cl)c2)C(C(=O)Nc2ccccc2C)=C(C)N1`, the TGI was above 100 µM with A549 NSCLC; 43.8 µM in the assay on NCI-H226 lung; 54.8 µM in the assay with CCRF-CEM leukemia; 43.2 µM in the assay with SF-295 CNS; 31.8 µM with SK-MEL-5 melanoma; 39.2 µM in the assay on UACC-62 melanoma. The TGI in the assay on LOX IMVI melanoma was 37.5 µM.

Take `Cc1cc(C)c([O-])c(CN(C)CCN(C)Cc2cc(C)cc(C)c2[O-])c1.O=C([O-])c1cccc(C(=O)[O-])n1.[Ti+4]`: the GI50 in the assay with A549 NSCLC was 3.18 µM; with NCI-H226 lung, 2.35 µM; in the assay with SF-295 CNS, 2.57 µM; with MDA-MB-231 breast, 3.42 µM; with SK-MEL-5 melanoma, 2.9 µM; in the assay with NCI/ADR-RES ovarian, 2.71 µM. The GI50 in the assay on HS 578T breast was 2.29 µM. In addition, the TGI with A549 NSCLC, with NCI-H226 lung, in the assay with SF-295 CNS, in the assay with MDA-MB-231 breast, with SK-MEL-5 melanoma and with NCI/ADR-RES ovarian was above 100 µM throughout. The same molecule had a TGI in the assay with HS 578T breast above 100 µM.

Consider `O=C(Nc1cc(Cl)c(Cl)cc1Cl)C(=O)C1C=CCS1(=O)=O` (configuration not stated), for which the concentration for total growth inhibition (TGI) with A549 NSCLC, in the assay with NCI-H226 lung, in the assay with CCRF-CEM leukemia, in the assay with SF-295 CNS, in the assay on SK-MEL-5 melanoma and in the assay with UACC-62 melanoma was above 100 µM in each case. This molecule displayed a TGI with LOX IMVI melanoma above 100 µM.

Take `Cc1c(NC(=O)C(C)(C)Br)c(=O)oc2c(C)c3occc(=O)c3cc12`: the TGI with A549 NSCLC is above 100 µM; with NCI-H226 lung, 71.9 µM; in the assay with CCRF-CEM leukemia, above 100 µM; in the assay with SF-295 CNS, above 100 µM; in the assay on SK-MEL-5 melanoma, above 100 µM; in the assay on UACC-62 melanoma, above 100 µM. Besides, in the assay on LOX IMVI melanoma, the TGI was above 100 µM.
